Results on five compounds are retold here after article PMC9147024 (2022).

Assay in all cases: SPR
(SPR reads the build-up and loss of mass on a sensor chip optically.)

Assay [1] has as its system AATGAAT (DNA, hairpin) CCAATGAATGCTCTCATTCATTGG
Conditions: Na+ 100 mM; 50 mM Tris-HCl, 1 mM EDTA, pH 7.4, 25 °C.

Assay [2] deals with ATAGCTAT (DNA, hairpin) CCATAGCTATGCTCTCATAGCTATGG
The following applies: Na+ 100 mM; 50 mM Tris-HCl, 1 mM EDTA, pH 7.4, 25 °C.

For assay [3], the system named is AAATTT (DNA, hairpin) CCAAATTTGCTCTCAAATTTGG
Conditions: Na+ 100 mM, 50 mM Tris-HCl, 1 mM EDTA, pH 7.4, 25 °C.

The subject of assay [4] is AAAGTTT (DNA, hairpin) CCAAAGTTTGCTCTCAAACTTTGG
The following applies: Na+ 100 mM, 50 mM Tris-HCl, 1 mM EDTA, pH 7.4, 25 °C.

Assay [5] concerns AAAGAAA (DNA, hairpin) CCAAAGAAAGCTCTCTTTCTTTGG
Conditions: Na+ 100 mM, 50 mM Tris-HCl, 1 mM EDTA, pH 7.4, 25 °C.

The test system of assay [6] is ATAGTAT (DNA, hairpin) CCATAGTATGCTCTCATACTATGG
Conditions: Na+ 100 mM; 50 mM Tris-HCl, 1 mM EDTA, pH 7.4, 25 °C.

Assay [7] deals with AAAGCTTT (DNA, hairpin) CCAAAGCTTTGCTCTCAAAGCTTTGG
Conditions: Na+ 100 mM; 50 mM Tris-HCl, 1 mM EDTA, pH 7.4, 25 °C.

The test system of assay [8] is ATATAT (DNA, hairpin) CCATATATGCTCTCATATATGG
The following applies: Na+ 100 mM, 50 mM Tris-HCl, 1 mM EDTA, pH 7.4, 25 °C.

The subject of assay [9] is AAAAAA (DNA, hairpin) CCAAAAAAGCTCTCTTTTTTGG
The following applies: Na+ 100 mM, 50 mM Tris-HCl, 1 mM EDTA, pH 7.4, 25 °C.

Assay [10] concerns AATAAT (DNA, hairpin) CCAATAATGCTCTCATTATTGG
Conditions: Na+ 100 mM, 50 mM Tris-HCl, 1 mM EDTA, pH 7.4, 25 °C.

Assay [11] has as its system AATGCAAT (DNA, hairpin) CCAATGCAATGCTCTCATTGCATTGG
The following applies: Na+ 100 mM; 50 mM Tris-HCl, 1 mM EDTA, pH 7.4, 25 °C.

Assay [12] has as its system AAAGCAAA (DNA, hairpin) CCAAAGCAAAGCTCTCTTTGCTTTGG
Conditions: Na+ 100 mM, 50 mM Tris-HCl, 1 mM EDTA, pH 7.4, 25 °C.

In general, KD refers to the concentration at which binding is half-saturated. Higher therefore signals lower affinity. Turning to `c1cc(COc2ccc(C3=NCCN3)cc2)nc(COc2ccc(C3=NCCN3)cc2)c1`, the KD in assay [1] was determined as 0.101 µM; in assay [2], 1 µM; in assay [4] it was 0.0036 µM; in assay [5], 0.043 µM; in assay [6], 0.227 µM; in assay [7] it was 0.123 µM. Also, in assay [3] (NB [sic]), the binding entry was “no”.
For the compound `N=C(N)c1ccc(OCc2cccc(COc3ccc(C(=N)N)cc3)c2)cc1`, the KD in [8] stood at 0.344 µM; in [9], 0.261 µM; in assay [3] it was 0.084 µM; in assay [4], 0.9 µM; in [10] (Figure S2 prints 344 nM), 0.117 µM. Also, the binding entry in [5] (NB [sic]) is on record as “no”.
With `c1cc(COc2ccc(C3=NCCCN3)cc2)nc(COc2ccc(C3=NCCCN3)cc2)c1`, the KD in assay [11] came out at 0.534 µM; in [8], 0.709 µM; in [1] it was 0.0057 µM; in assay [12], 0.653 µM; in assay [2], 0.256 µM; in assay [9], 1.111 µM. For the same compound, the KD in [3] amounted to 0.138 µM; in [4], 0.001 µM; in assay [5], 0.0046 µM; in [6], 0.0336 µM; in assay [7], 0.027 µM; in [10] it was 0.141 µM.
For the compound `N=C(N)c1ccc(OCc2cccc(COc3ccc(C(N)=O)cc3)n2)cc1`, the KD in assay [1] is 0.689 µM; in [4], 0.052 µM; in assay [7] it was 1.025 µM.
`N=C(N)c1ccc(OCc2cccc(COc3ccc(C(=N)N)cc3)n2)cc1`: the KD in assay [11] amounted to 1.176 µM; in [1], 0.024 µM; in [2], 0.719 µM; in [3], 0.374 µM; in assay [4] (text b19 gives 1.8 nM) it was 0.0014 µM; in [5], 0.019 µM. The equilibrium dissociation constant (KD) in [6] is 0.068 µM; in [7], 0.058 µM. Besides, the binding entry in assay [8] (NB [sic]), in assay [12] (NB [sic]), in [9] (NB [sic]) and in [10] (NB [sic]) was “no” each time.
